Results on 62 molecules are retold here after PubChem BioAssay AID588426 (Johns Hopkins Ion Channel Center, 2011).

In this test the target is Potassium voltage-gated channel subfamily KQT member 2 (Rattus norvegicus) (UniProt O88943). Description: KCNQ2 channel current inhibitors, SAR follow-up, orthogonal assay for KCNQ2 inhibitor project, automated electrophysiology, CHO cells, CRC2 (AID 588426). As to conditions: KCNQ2-CHO automated patch clamp current; for current change, negative = inhibition: at 30 µM (top of the series). For orientation: The patch-clamp technique gives a direct electrical read-out from membranes.
Sequence of Potassium voltage-gated channel subfamily KQT member 2 (Rattus norvegicus) (O88943 whole entry, looked up): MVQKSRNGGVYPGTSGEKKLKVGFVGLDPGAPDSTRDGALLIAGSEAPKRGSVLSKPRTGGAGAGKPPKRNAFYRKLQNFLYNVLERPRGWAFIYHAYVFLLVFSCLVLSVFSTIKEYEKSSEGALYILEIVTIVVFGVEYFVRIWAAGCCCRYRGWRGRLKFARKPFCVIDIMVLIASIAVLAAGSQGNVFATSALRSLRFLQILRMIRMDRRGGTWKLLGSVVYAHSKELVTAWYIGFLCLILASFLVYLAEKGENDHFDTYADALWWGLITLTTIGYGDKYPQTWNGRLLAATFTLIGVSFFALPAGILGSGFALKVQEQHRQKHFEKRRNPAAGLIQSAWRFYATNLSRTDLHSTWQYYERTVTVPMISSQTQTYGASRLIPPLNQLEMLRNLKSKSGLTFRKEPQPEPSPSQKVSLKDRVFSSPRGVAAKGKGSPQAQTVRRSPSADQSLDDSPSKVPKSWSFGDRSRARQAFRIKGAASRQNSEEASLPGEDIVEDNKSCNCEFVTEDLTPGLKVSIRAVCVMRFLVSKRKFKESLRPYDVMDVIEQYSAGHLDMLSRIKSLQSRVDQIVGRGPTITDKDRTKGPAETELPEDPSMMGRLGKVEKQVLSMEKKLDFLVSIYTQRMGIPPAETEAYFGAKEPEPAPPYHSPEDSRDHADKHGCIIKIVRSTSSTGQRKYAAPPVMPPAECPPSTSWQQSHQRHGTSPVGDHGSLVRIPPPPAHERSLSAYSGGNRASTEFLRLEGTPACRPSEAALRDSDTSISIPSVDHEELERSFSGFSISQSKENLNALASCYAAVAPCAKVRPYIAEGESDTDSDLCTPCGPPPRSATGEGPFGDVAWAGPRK

Activity calls are given as the source filed them.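 How the source made its calls: active means blocks KCNQ2 potassium channel current at some tested dose, with a fitted dose response curve; inactive means the rest.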

Regarding `O=C(Nc1ccccc1N1CCCC1)[C@@H]1CCCc2ccccc21`, the IC50 is 29900 nM. The same measure, in the same setting: under `CCC(C(=O)Nc1ccccc1N1CCCC1)c1cccc(F)c1` (configuration not stated) stands 360 nM.

As for `O=C(Nc1ccccc1N1CCCC1)C1(c2ccccc2)CC1`, the “current change, negative = inhibition” value is “inactive”.

In the case of `CCC(C(=O)Nc1ccccc1N1CCCC1)c1cccc(OC)c1` (configuration not stated), the IC50 was 120 nM. In the case of `CCC(C(=O)Nc1ccccc1N1CCCC1)c1cccc(C)c1` (configuration not stated), the IC50 is 330 nM. Take `CCC(C(=O)Nc1ccccc1N1C(=O)CCC1=O)c1ccccc1` (configuration not stated): the “current change, negative = inhibition” value is “inactive”. Regarding `CCC(C(=O)Nc1ccccc1N1CCCC1)c1ccc(Cl)cc1` (configuration not stated), the IC50 is 280 nM.

Regarding `CCC(C(=O)Nc1ccccc1N(C)Cc1ccccc1)c1ccccc1` (configuration not stated), the “current change, negative = inhibition” value is “inactive”. For the molecule `CCCC(C(=O)Nc1ccccc1N1CCCC1)c1ccccc1` (configuration not stated), the IC50 was 320 nM. Regarding `CCC(C(=O)Nc1ccccc1OC)c1ccccc1` (configuration not stated), the “current change, negative = inhibition” value was “inactive”. For `O=C(Cc1ccc(F)c(F)c1)Nc1ccccc1N1CCCC1`, the IC50 was 1730 nM. Consider `CCC(C(=O)Nc1ccccc1-n1c(C)ccc1C)c1ccccc1` (configuration not stated), for which the “current change, negative = inhibition” value is “inactive”. Consider `CC[C@@H](C(=O)Nc1ccccc1N1CCCC1)c1ccccc1`, for which the IC50 is 940 nM. Turning to `CCC(C(=O)Nc1cccc(N2CCCC2)c1)c1ccccc1` (configuration not stated), the “current change, negative = inhibition” value is “inactive”. For `CCC(C(=O)Nc1ccccc1N1CCOCC1)c1ccccc1` (configuration not stated), the IC50 is 12700 nM.

With `CCC(C(=O)Nc1ccccc1N1CCCC1)c1ccc(Cl)c(Cl)c1` (configuration not stated), the IC50 is 470 nM. As for `CCC(C(=O)Nc1ccccc1-n1ccnc1)c1ccccc1` (configuration not stated), the “current change, negative = inhibition” value was “inactive”.

In the case of `Cc1cccc(CC(=O)Nc2ccccc2N2CCCC2)c1`, the IC50 is 1320 nM. The same measure, in the same setting: under `O=C(Nc1ccccc1N1CCCC1)[C@H]1CCc2ccccc21` stands 14100 nM. As to `CCC(C(=O)Nc1ccccc1N1CCCCCCC1)c1ccccc1` (configuration not stated), the “current change, negative = inhibition” value is “inactive”. With `O=C(Cc1cccc(C(F)(F)F)c1)Nc1ccccc1N1CCCC1`, the IC50 is 350 nM. The same measure, in the same setting: under `C[C@H](C(=O)Nc1ccccc1N1CCCC1)c1ccccc1` stands 590 nM. Still for that read-out and setting: under `CCC(C(=O)Nc1ccc(N2CCCC2)cc1)c1ccccc1` (configuration not stated) stands 210 nM; under `CCC(C(=O)Nc1ccccc1N1CCCC1)c1ccc(F)c(F)c1` (configuration not stated), 170 nM. With `CCC(C(=O)Nc1ccccc1N(C)CC)c1ccccc1` (configuration not stated), the “current change, negative = inhibition” value was “inactive”.

Take `CCC(C(=O)Nc1ccccc1N1CCCC1)c1ccccc1` (configuration not stated): the IC50 was 160 nM.

Take `O=C(Cc1ccccc1F)Nc1ccccc1N1CCCC1`: the “current change, negative = inhibition” value is “inactive”. On the same count and under the same terms, under `O=C(Nc1ccccc1N1CCCC1)C1CCOc2ccccc21` (configuration not stated) stands “inactive”. With `CCC(C(=O)Nc1ccccc1N1CCCC1)c1cccc(C(F)(F)F)c1` (configuration not stated), the IC50 was 390 nM. Still for that read-out and setting: under `CCC(C(=O)Nc1ccccc1N1CCCC1)c1ccc(OC)cc1` (configuration not stated) stands 380 nM; under `CCC(C(=O)Nc1ccccc1N1CCCC1)c1ccccc1F` (configuration not stated), 440 nM; under `CC[C@H](C(=O)Nc1ccc(N2CCCC2)cc1)c1ccccc1`, 110 nM. On the same count and under the same terms, under `CCC(C(=O)Nc1ccccc1N1CCCC1)c1cccc(Cl)c1` (configuration not stated) stands 240 nM; under `O=C(Cc1cccc(F)c1)Nc1ccccc1N1CCCC1`, 490 nM; under `O=C(Nc1ccccc1N1CCCC1)[C@H]1CCCc2ccccc21`, 24600 nM. The same measure, in the same setting: under `O=C(Nc1ccccc1N1CCCC1)C(c1ccccc1)C1CC1` (configuration not stated) stands 3500 nM. As to `CC(C)CC(C(=O)Nc1ccccc1N1CCCC1)c1ccccc1` (configuration not stated), the IC50 is 2220 nM. Turning to `O=C(Cc1c(F)cccc1F)Nc1ccccc1N1CCCC1`, the IC50 was 560 nM. `COc1ccc(CC(=O)Nc2ccccc2N2CCCC2)cc1`: the IC50 was 1750 nM. `CC(C)(C(=O)Nc1ccccc1N1CCCC1)c1ccccc1`: the “current change, negative = inhibition” value is “inactive”. With `COc1cccc(CC(=O)Nc2ccccc2N2CCCC2)c1`, the IC50 was 2350 nM.

With `CC[C@@H](C(=O)Nc1ccc(N2CCCC2)cc1)c1ccccc1`, the IC50 is 360 nM. For the molecule `O=C(Cc1ccccc1)Nc1ccccc1N1CCCC1`, the IC50 is 740 nM. As to `O=C(Nc1ccccc1N1CCCC1)C1CCc2ccccc21` (configuration not stated), the IC50 was 330 nM. The same measure, in the same setting: under `O=C(Nc1ccccc1N1CCCC1)C(F)c1ccccc1` (configuration not stated) stands 990 nM; under `O=C(Cc1ccc(Cl)c(Cl)c1)Nc1ccccc1N1CCCC1`, 1070 nM; under `O=C(Cc1ccc(Cl)cc1)Nc1ccccc1N1CCCC1`, 800 nM. Same read-out and setting: under `CC(C(=O)Nc1ccccc1N1CCCC1)c1ccccc1` (configuration not stated) stands 260 nM; under `O=C(Cc1cccc(Cl)c1)Nc1ccccc1N1CCCC1`, 170 nM; under `CCC(C(=O)Nc1ccccc1-n1cccc1)c1ccccc1` (configuration not stated), 5270 nM. Same read-out and setting: under `CCC(C(=O)Nc1ccccc1N(C)C)c1ccccc1` (configuration not stated) stands 17400 nM; under `O=C(Nc1ccccc1N1CCCC1)[C@@H]1CCc2ccccc21`, 2290 nM. Take `C[C@@H](C(=O)Nc1ccccc1N1CCCC1)c1ccccc1`: the IC50 is 5130 nM. `CCC(C(=O)Nc1ccccc1N1CCCCC1)c1ccccc1` (configuration not stated): the “current change, negative = inhibition” value was “inactive”. For `CC[C@H](C(=O)Nc1ccccc1N1CCCC1)c1ccccc1`, the IC50 is 80 nM. Still for that read-out and setting: under `CCC(C(=O)Nc1ccccc1Cl)c1ccccc1` (configuration not stated) stands 15000 nM; under `CCC(C(=O)Nc1ccccc1N1CCCC1)c1ccccc1Cl` (configuration not stated), 3310 nM; under `O=C(Cc1ccccc1Cl)Nc1ccccc1N1CCCC1`, 950 nM.

In the case of `CCC(C(=O)Nc1ccccc1N1CCCC1)c1ccc(OC)c(OC)c1` (configuration not stated), the IC50 was 20200 nM. On the same count and under the same terms, under `CCC(C(=O)Nc1ccccc1N1CCCC1)c1ccc(F)cc1` (configuration not stated) stands 130 nM. On to `CC(C)C(C(=O)Nc1ccccc1N1CCCC1)c1ccccc1` (configuration not stated), for which the “current change, negative = inhibition” value was “inactive”. On to `O=C(Cc1ccc(F)cc1)Nc1ccccc1N1CCCC1`, for which the IC50 is 700 nM.

The term IC50 denotes the concentration that gives 50% inhibition.
